Data on 32 molecules can be found in US20250163006A1, “New Coolants, and Preparations Containing Same” (Symrise AG, priority 2022, published 2025).

Like-named read-outs stand apart in the source and are kept apart here.

One test has as its target T1, human TRPM8 receptor (Homo sapiens, UniProt Q7Z2W7).
T1 construct: expressed in transfected cells; host or cells: HEK293, stably transfected, tetracycline-inducible expression
The experiment in a line: Assay on TRPM8 modulators: Ca2+-sensitive dye (Fluo-4) fluorescence in HEK293-TRPM8 test cells. Also on record: relative TRPM8 activation: concentration or dose not given beside the values. In kind it is cell-based. As to conditions: for relative TRPM8 activation: HEK293 cells recombinantly expressing human TRPM8; for EC50: HEK293-TRPM8 cells. In outline: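 HEK293 cells stably carrying tetracycline-inducible human TRPM8 (1 µg/ml tetracycline), loaded next day with Fluo-4 (30 min 37 °C, 30 min RT). Compounds tested in triplicate at 0.1–200 µM (≤2% DMSO) and fluorescence read at 485/520 nm. EC50 from 4- or 5-parameter logistic fits of 6–10 concentrations.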

Test [1] in a line: Sensory tasting of cooling intensity by trained panelists, WS-3 as reference. Type of test: in vivo, human. As to conditions: 5 ppm in 5% sugar solution, rated after one minute, scale 1 (very weak) to 9 (very strong); for Sensory evaluation: cooling intensity. The protocol: In order to quantify the cooling effect, comparative tests are carried out using menthane-3-carboxylic acid-N-ethylamide as a reference. For these comparative tests, the skilled person replaces the compound or compounds to be used according to the invention with menthane-3-carboxylic acid-N-ethylamide (also referred to as WS-3). Then the intensities of the cooling effects of the respective compounds or active ingredients are sensory evaluated by trained panelists (n=10 to 11) as described below and compared with each other.
The cooling intensity was tested as follows: Test solutions with 5 ppm of the compounds according to the invention were each tasted in a 5% sugar solution as well as a corresponding solution with 30 ppm of the reference substance WS-3. […] The panelists tasted the corresponding test solutions for exactly 40 seconds, rinsing the entire mouth with the corresponding test solution and then spitting out the sample or reference solution. Following the tasting, the test subjects rated the respective cooling intensity after one minute according to a scale of 1 (very weak) to 9 (very strong).

[2] abbreviates: TRPM8 activation, 6 to 10 concentrations, logistic curve fitting, read-out: EC50 value.

T1 sequence (Q7Z2W7 whole entry): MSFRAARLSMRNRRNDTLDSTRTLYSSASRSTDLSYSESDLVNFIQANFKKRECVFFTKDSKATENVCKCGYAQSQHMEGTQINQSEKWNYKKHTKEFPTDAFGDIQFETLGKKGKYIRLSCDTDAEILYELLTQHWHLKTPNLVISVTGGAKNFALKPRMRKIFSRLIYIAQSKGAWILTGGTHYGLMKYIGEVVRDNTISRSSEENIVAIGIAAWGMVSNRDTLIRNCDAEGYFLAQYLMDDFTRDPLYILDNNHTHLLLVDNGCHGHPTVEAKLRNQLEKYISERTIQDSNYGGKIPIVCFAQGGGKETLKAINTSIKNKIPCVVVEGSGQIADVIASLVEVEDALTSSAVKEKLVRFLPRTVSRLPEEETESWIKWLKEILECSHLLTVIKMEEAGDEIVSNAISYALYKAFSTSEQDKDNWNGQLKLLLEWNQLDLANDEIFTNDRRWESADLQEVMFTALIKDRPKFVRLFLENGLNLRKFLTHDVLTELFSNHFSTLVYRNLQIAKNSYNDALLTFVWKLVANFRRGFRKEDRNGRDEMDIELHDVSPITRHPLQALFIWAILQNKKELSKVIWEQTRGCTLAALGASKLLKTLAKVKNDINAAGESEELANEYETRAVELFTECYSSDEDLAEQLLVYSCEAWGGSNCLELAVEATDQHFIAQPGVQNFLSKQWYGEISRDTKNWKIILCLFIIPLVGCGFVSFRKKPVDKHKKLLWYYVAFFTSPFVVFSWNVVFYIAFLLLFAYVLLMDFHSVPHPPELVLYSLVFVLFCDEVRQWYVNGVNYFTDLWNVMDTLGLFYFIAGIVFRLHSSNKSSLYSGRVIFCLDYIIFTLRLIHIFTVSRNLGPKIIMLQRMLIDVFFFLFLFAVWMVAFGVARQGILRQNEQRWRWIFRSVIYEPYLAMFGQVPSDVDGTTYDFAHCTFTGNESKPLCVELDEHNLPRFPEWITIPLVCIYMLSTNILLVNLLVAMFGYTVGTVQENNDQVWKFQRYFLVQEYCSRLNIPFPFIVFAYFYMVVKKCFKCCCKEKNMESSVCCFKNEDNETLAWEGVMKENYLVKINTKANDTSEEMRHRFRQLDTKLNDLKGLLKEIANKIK

In the case of `O=C(CCc1nc(-c2ccccc2)c(-c2ccccc2)o1)NC1CC1` [Compound A-18, N-cyclopropyl-3-(4,5-diphenyloxazol-2-yl)propanamide], the “relative TRPM8 activation” value on human TRPM8 receptor came out at 80%. The molecule further had a Sensory evaluation in test [1] (Table 6) of 0.71. For `O=C(CSc1nnc(-c2ccccc2)c(-c2ccccc2)n1)N1CCC1` [Compound B-06, 1-(azetidin-1-yl)-2-[(5,6-diphenyl-1,2,4-triazin-3-yl)sulfanyl]ethanone], the EC50 on human TRPM8 receptor (setting [2]) was at most 1000 nM; at human TRPM8 receptor (Table 5, read-out: TRPM8 EC50), 280 nM; on human TRPM8 receptor (Table 7, read-out: TRPM8 EC50), 280 nM. In addition, the Sensory evaluation in test [1] (Table 5) and in test [1] (Table 9) was 3.0 throughout. Take `CNC(=O)CCc1nc(-c2ccccc2)c(-c2ccccc2)o1` [Compound A-16, 3-(4,5-diphenyloxazol-2-yl)-N-methyl-propanamide]: the EC50 was determined as 4270 nM at human TRPM8 receptor (Table 6, read-out: TRPM8 EC50) and 4270 nM at human TRPM8 receptor (Table 8, read-out: TRPM8 EC50). Also, the Sensory evaluation in test [1] (Table 6) and in test [1] (Table 10) was 2.3 each time.

As to `CNC(=O)C(C)Sc1nc(-c2ccccc2)c(-c2ccccc2)o1` (centres unmarked) [Compound A-02, 2-(4,5-diphenyloxazol-2-yl)sulfanyl-N-methyl-propanamide], the EC50 at human TRPM8 receptor (Table 6, read-out: TRPM8 EC50) was found to be 10 nM; on human TRPM8 receptor (Table 8, read-out: TRPM8 EC50), 10 nM. Further, in test [1] (tasted 40 seconds, n=10 to 11), the “cooling intensity (sensory evaluation, score)” value is listed as 5.4. Besides, the Sensory evaluation in test [1] (Table 6) and in test [1] (Table 10) was 5.4 in each case. As to `CCSc1nc(-c2ccccc2)c(-c2ccccc2)o1` [Compound A-55, 2-ethylsulfanyl-4,5-diphenyl-oxazole], at human TRPM8 receptor, the “relative TRPM8 activation” value worked out at 1%. In test [1] (Table 6), the Sensory evaluation was determined as 0.59. For the molecule `CCCNC(=O)C(C)Sc1nc(-c2ccccc2)c(-c2ccccc2)o1` (centres unmarked) [Compound A-12, 2-(4,5-diphenyloxazol-2-yl)sulfanyl-N-propyl-propanamide], the EC50 on human TRPM8 receptor (Table 6, read-out: TRPM8 EC50) is 5090 nM; on human TRPM8 receptor (Table 8, read-out: TRPM8 EC50), 5090 nM. Moreover, the Sensory evaluation in test [1] (Table 6) and in test [1] (Table 10) was 1.26 in each case. For the molecule `CNC(=O)[C@H]1C[C@H]1c1nc(-c2ccccc2)c(-c2ccccc2)o1` (racemic) [Compound A-04, rac-(1S,2R)-2-(4,5-diphenyloxazol-2-yl)-N-methyl-cyclopropane-carboxamides], the EC50 at human TRPM8 receptor (setting [2]) is at most 1000 nM; at human TRPM8 receptor (Table 6, read-out: TRPM8 EC50) it was 600 nM; at human TRPM8 receptor (Table 8, read-out: TRPM8 EC50) it was 600 nM. For the same molecule, the Sensory evaluation in test [1] (Table 6) and in test [1] (Table 10) was 0.5 each time.

Regarding `CNC(=O)[C@H]1C[C@@H]1c1nc(-c2ccccc2)c(-c2ccccc2)o1` (racemic) [Compound A-39, rac-(1S,2S)-2-(4,5-diphenyloxazol-2-yl)-N-methyl-cyclopropane-carboxamides], the “relative TRPM8 activation” value at human TRPM8 receptor is given as 5%. This molecule returned a Sensory evaluation in test [1] (Table 6) of 0.7. Take `O=C(CSc1nnc(-c2ccccc2)c(-c2ccccc2)n1)NC1CC1` [Compound B-19, N-cyclopropyl-2-[(5,6-diphenyl-1,2,4-triazin-3-yl)sulfanyl]acetamide]: the Sensory evaluation in test [1] (Table 5) and in test [1] (Table 9) was 1.9 throughout.

As for `CNC(=O)CSc1ncc(-c2ccccc2)[nH]1` [Compound A-64], the “relative TRPM8 activation” value at human TRPM8 receptor was −1%.

For `CCC(=O)CSc1nnc(-c2ccccc2)c(-c2ccccc2)n1` [Compound B-33, 1-[(5,6-diphenyl-1,2,4-triazin-3-yl)sulfanyl]butan-2-one], the “relative TRPM8 activation” value on human TRPM8 receptor turned out to be 25%. Same read-out and setting: with `COc1ccc(-c2nc(SCC(=O)NC3CC3)oc2-c2ccc(OC)cc2)cc1` [Compound A-58, 2-[4,5-bis(4-methoxyphenyl)oxazol-2-yl]sulfanyl-N-cyclopropyl-acetamide] the figure was 1%. `CCCCNC(=O)CSc1nc(-c2ccccc2)c(-c2ccccc2)o1` [Compound A-70, N-butyl-2-(4,5-diphenyloxazol-2-yl)sulfanyl-acetamide]: the “relative TRPM8 activation” value at human TRPM8 receptor is reported as −2%. Take `CSCC(=O)N1CCCCC1c1nc(-c2ccc(C)cc2)co1` (centres unmarked) [Compound A-08, 2-methylsulfanyl-1-[2-[4-(p-tolyl)oxazol-2-yl]-1-piperidyl] ethanone]: the EC50 was at most 1000 nM at human TRPM8 receptor (setting [2]); 110 nM on human TRPM8 receptor (Table 6, read-out: TRPM8 EC50); 110 nM at human TRPM8 receptor (Table 8, read-out: TRPM8 EC50).

Take `COCC(C)NC(=O)CSc1nc(-c2ccccc2)c(-c2ccccc2)o1` (centres unmarked) [Compound A-67, 2-(4,5-diphenyloxazol-2-yl)sulfanyl-N-(2-methoxy-1-methyl-ethyl)acetamide]: on human TRPM8 receptor, the “relative TRPM8 activation” value is recorded as −2%. On to `CNC(=O)COc1nnc(-c2ccccc2)c(-c2ccccc2)n1` [Compound B-52, 2-[(5,6-diphenyl-1,2,4-triazin-3-yl)oxy]-N-methyl-acetamide], for which the “relative TRPM8 activation” value on human TRPM8 receptor is 3%. Consider `CNC(=O)C(C)Sc1nc(-c2ccccc2)c(-c2ccccc2)o1` (centres unmarked) [Compound A-01, 3-carboxy-3,5-dihydroxy-5-OXO-pentanoate;2-(4,5-diphenyloxazol-2-yl)sulfanylpropa noyl-methyl-ammonium], for which the EC50 amounted to 10 nM on human TRPM8 receptor (Table 6, read-out: TRPM8 EC50) and 10 nM on human TRPM8 receptor (Table 8, read-out: TRPM8 EC50). Consider `CSCC(=O)N1CCCCC1c1nc(-c2ccccc2)c(-c2ccccc2)o1` (centres unmarked) [Compound A-21, 1-[2-(4,5-diphenyloxazol-2-yl)-1-piperidyl]-2-methylsulfanyl-ethanone], for which the “relative TRPM8 activation” value on human TRPM8 receptor was 70%. The same measure, in the same setting: with `Cc1ccc(-c2nnc(SCC(=O)NC3CC3)nc2-c2ccc(C)cc2)cc1` [Compound B-62, 2-[[5,6-bis(p-tolyl)-1,2,4-triazin-3-yl]sulfanyl]-N-cyclopropyl-acetamide] the figure was 0%; with `CNC(=O)CCCc1nc(-c2ccccc2)c(-c2ccccc2)o1` [Compound A-36, 4-(4,5-diphenyloxazol-2-yl)-N-methyl-butanamide], 12%. As to `CN(C)C(=O)CSc1cnc(-c2ccccc2)c(-c2ccccc2)n1` [Compound B-23, 2-(5,6-diphenylpyrazin-2-yl)sulfanyl-N,N-dimethyl-acetamide], the “relative TRPM8 activation” value at human TRPM8 receptor was found to be 73%. Take `CCC(Sc1nnc(-c2ccccc2)c(-c2ccccc2)n1)C(=O)NC` (centres unmarked) [Compound B-03, 2-[(5,6-diphenyl-1,2,4-triazin-3-yl)sulfanyl]-N-methyl-butanamide]: the EC50 at human TRPM8 receptor (setting [2]) is at most 1000 nM; at human TRPM8 receptor (Table 5, read-out: TRPM8 EC50), 70 nM; on human TRPM8 receptor (Table 7, read-out: TRPM8 EC50), 70 nM. In the case of `CN(C)CCSc1nnc(-c2ccccc2)c(-c2ccccc2)n1` [Compound B-36, 2-[(5,6-diphenyl-1,2,4-triazin-3-yl)sulfanyl]-N,N-dimethyl-ethanamine], the “relative TRPM8 activation” value at human TRPM8 receptor stood at 20%. For the molecule `CCC(=O)CCc1nc(-c2ccccc2)c(-c2ccccc2)o1` [Compound A-40, 1-(4,5-diphenyloxazol-2-yl)pentan-3-one], the “relative TRPM8 activation” value at human TRPM8 receptor amounted to 5%.

For the molecule `Cc1ccc(-c2nnc(SC(C)C(=O)N3CCCC3)nc2-c2ccc(C)cc2)cc1` (centres unmarked) [Compound B-38, 2-[[5,6-bis(p-tolyl)-1,2,4-triazin-3-yl]sulfanyl]-1-pyrrolidin-1-yl-propan-1-one], at human TRPM8 receptor, the “relative TRPM8 activation” value is given as 11%. Still for that read-out and setting: in the case of `CCCCSc1nnc(-c2ccccc2)c(-c2ccccc2)n1` [Compound B-31, 3-butylsulfanyl-5,6-diphenyl-1,2,4-triazine] it was 40%; in that of `CCCC(C)NC(=O)CSc1nc(-c2ccccc2)c(-c2ccccc2)o1` (centres unmarked) [Compound A-52, 2-(4,5-diphenyloxazol-2-yl)sulfanyl-N-(1-methylbutyl) acetamide], 1%; in that of `CNC(=O)C(C)Sc1nnc(-c2ccc(OC)cc2)c(-c2ccc(OC)cc2)n1` (centres unmarked) [Compound B-40, 2-[[5,6-bis(4-methoxyphenyl)-1,2,4-triazin-3-yl]sulfanyl]-N-methyl-propanamide], 9%. Still for that read-out and setting: with `c1ccc(-c2nnc(NC3COC3)nc2-c2ccccc2)cc1` [Compound B-51, N-(oxetan-3-yl)-5,6-diphenyl-1,2,4-triazin-3-amine] the figure was 3%; with `CNC(=O)CCc1nc(-c2ccc(C)cc2)c(-c2ccc(C)cc2)o1` [Compound A-32, 3-[4,5-bis (p-tolyl)oxazol-2-yl]-N-methyl-propanamide], 23%; with `CC(C)C(=O)CSc1nc(-c2ccccc2)c(-c2ccccc2)o1` [Compound A-51, 1-(4,5-diphenyloxazol-2-yl)sulfanyl-3-methyl-butan-2-one], 1%. Same read-out and setting: with `O=C(CSc1ncco1)NC1CC1` [Compound A-66, N-cyclopropyl-2-oxazol-2-ylsulfanyl-acetamide] the figure was −1%.
